Several values for one entry are separate records, joined by “and”; a condition that tells them apart may be missing. Identical values can stand only once. Like-named read-outs stand apart in the source and are kept apart here.
Experiments:
Assay in all cases: Kinase selectivity profile assay
Type in all cases: biochemical
ACK1 = biological target: T1, ACK1 (Homo sapiens, UniProt Q07912); settings: for remaining activity at 0.5 µM: 500 nM, relative to DMSO, read-out: Residual enzymatic activity
T1 construct: purchased Reaction Biology Corporation (assay service)
Procedure, shortened: (§1)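 Radiometric kinase assay run by a standard protocol. Unbound phosphate was removed by washing filters in phosphoric acid, and product radioactivity gave percent remaining kinase activity versus DMSO vehicle reactions. Run in duplicate.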

ALK4/ACVR1B = biological target: T2, ALK4/ACVR1B (Homo sapiens, UniProt P36896); settings: 500 nM; relative to DMSO; read-out: Residual enzymatic activity
T2 construct: purchased Reaction Biology Corporation
Procedure, shortened: as §1

BRSK1 = biological target: T3, BRSK1 (Homo sapiens, UniProt Q8TDC3); settings: 500 nM; relative to DMSO; read-out: Residual enzymatic activity
T3 construct: purchased Reaction Biology Corporation
Procedure, shortened: as §1

CAMKK1 = biological target: T4, CAMKK1 (Homo sapiens, UniProt Q8N5S9); settings: 500 nM; relative to DMSO; read-out: Residual enzymatic activity
T4 construct: purchased Reaction Biology Corporation
Procedure, shortened: as §1

CDK1/cyclin A = biological target: T5, CDK1/cyclin A (Homo sapiens, UniProt P06493); settings: 500 nM; relative to DMSO; read-out: Residual enzymatic activity
T5 construct: purchased Reaction Biology Corporation
Procedure, shortened: as §1

CDK2/cyclin A = biological target: T6, CDK2/cyclin A (Homo sapiens, UniProt P24941); settings: 500 nM; relative to DMSO; read-out: Residual enzymatic activity
T6 construct: purchased Reaction Biology Corporation
Procedure, shortened: as §1

CDK4/cyclin D3 = biological target: T7, CDK4/cyclin D3 (Homo sapiens, UniProt P11802); settings: 500 nM; relative to DMSO; read-out: Residual enzymatic activity
T7 construct: purchased Reaction Biology Corporation
Procedure, shortened: as §1

CHK1 = biological target: T8, CHK1 (Homo sapiens, UniProt O14757); settings: 500 nM; relative to DMSO; read-out: Residual enzymatic activity
T8 construct: purchased Reaction Biology Corporation
Procedure, shortened: as §1

CK2a2 = biological target: T9, CK2a2 (Homo sapiens, UniProt P19784); settings: 500 nM; relative to DMSO; read-out: Residual enzymatic activity
T9 construct: purchased Reaction Biology Corporation
Procedure, shortened: as §1

CSK = biological target: T10, CSK (Homo sapiens, UniProt P41240); settings: for remaining activity at 0.5 µM: 500 nM, relative to DMSO, read-out: Residual enzymatic activity
T10 construct: purchased Reaction Biology Corporation (assay service)
Procedure, shortened: as §1

DCAMKL1 = biological target: T11, DCAMKL1 (Homo sapiens, UniProt O15075); settings: 500 nM; relative to DMSO; read-out: Residual enzymatic activity
T11 construct: purchased Reaction Biology Corporation
Procedure, shortened: as §1

DYRK2 = biological target: T12, DYRK2 (Homo sapiens, UniProt Q92630); settings: 500 nM; relative to DMSO; read-out: Residual enzymatic activity
T12 construct: purchased Reaction Biology Corporation
Procedure, shortened: as §1

EPHA4 = biological target: T13, EPHA4 (Homo sapiens, UniProt P54764); settings: 500 nM, relative to DMSO; for remaining activity at 0.5 µM: read-out: Residual enzymatic activity
T13 construct: purchased Reaction Biology Corporation
Procedure, shortened: as §1

EPHB3 = biological target: T14, EPHB3 (Homo sapiens, UniProt P54753); settings: 500 nM, relative to DMSO
T14 construct: purchased Reaction Biology Corporation
Procedure, shortened: as §1

GRK5 = biological target: T15, GRK5 (Homo sapiens, UniProt P34947); settings: 500 nM; relative to DMSO; read-out: Residual enzymatic activity
T15 construct: purchased Reaction Biology Corporation
Procedure, shortened: as §1

LATS1 = biological target: T16, LATS1 (Homo sapiens, UniProt O95835); settings: 500 nM; relative to DMSO; read-out: Residual enzymatic activity
T16 construct: purchased Reaction Biology Corporation
Procedure, shortened: as §1

MKK6 = biological target: T17, MKK6 (Homo sapiens, UniProt P52564); settings: 500 nM; relative to DMSO; read-out: Residual enzymatic activity
T17 construct: purchased Reaction Biology Corporation
Procedure, shortened: as §1

MNK1 = biological target: T18, MNK1 (Homo sapiens, UniProt Q9BUB5); settings: 500 nM; relative to DMSO; read-out: Residual enzymatic activity
T18 construct: purchased Reaction Biology Corporation
Procedure, shortened: as §1

MRCKb/CDC42BPB = biological target: T19, MRCKb/CDC42BPB (Homo sapiens, UniProt Q9Y5S2); settings: read-out: Residual enzymatic activity
T19 construct: purchased Reaction Biology Corporation
Procedure, shortened: as §1

MST4 = biological target: T20, MST4 (Homo sapiens, UniProt Q9P289); settings: 500 nM; relative to DMSO; read-out: Residual enzymatic activity
T20 construct: purchased Reaction Biology Corporation
Procedure, shortened: as §1

NEK6 = biological target: T21, NEK6 (Homo sapiens, UniProt Q9HC98); settings: 500 nM; relative to DMSO; read-out: Residual enzymatic activity
T21 construct: purchased Reaction Biology Corporation
Procedure, shortened: as §1

PASK = biological target: T22, PASK (Homo sapiens, UniProt Q96RG2); settings: 500 nM; relative to DMSO; read-out: Residual enzymatic activity
T22 construct: purchased Reaction Biology Corporation
Procedure, shortened: as §1

PHKg1 = biological target: T23, PHKg1 (Homo sapiens, UniProt Q16816); settings: 500 nM; relative to DMSO; read-out: Residual enzymatic activity
T23 construct: purchased Reaction Biology Corporation
Procedure, shortened: as §1

PIM1 = biological target: T24, PIM1 (Homo sapiens, UniProt P11309); settings: 500 nM; relative to DMSO; read-out: Residual enzymatic activity
T24 construct: purchased Reaction Biology Corporation
Procedure, shortened: as §1

PKCb1 = biological target: T25, PKCb1 (Homo sapiens, UniProt P05771); settings: 500 nM; relative to DMSO; read-out: Residual enzymatic activity
T25 construct: purchased Reaction Biology Corporation
Procedure, shortened: as §1

PKCtheta = biological target: T26, PKCtheta (Homo sapiens, UniProt Q04759); settings: 500 nM; relative to DMSO; read-out: Residual enzymatic activity
T26 construct: purchased Reaction Biology Corporation
Procedure, shortened: as §1

PKG1a = biological target: T27, PKG1a (Homo sapiens, UniProt Q13976); settings: 500 nM; relative to DMSO; read-out: Residual enzymatic activity
T27 construct: purchased Reaction Biology Corporation
Procedure, shortened: as §1

PLK2 = biological target: T28, PLK2 (Homo sapiens, UniProt Q9NYY3); settings: 500 nM; relative to DMSO; read-out: Residual enzymatic activity
T28 construct: purchased Reaction Biology Corporation
Procedure, shortened: as §1

PRKX = biological target: T29, PRKX (Homo sapiens, UniProt P51817); settings: 500 nM; relative to DMSO; read-out: Residual enzymatic activity
T29 construct: purchased Reaction Biology Corporation
Procedure, shortened: as §1

RIPK3 = biological target: T30, RIPK3 (Homo sapiens, UniProt Q9Y572); settings: 500 nM; relative to DMSO; read-out: Residual enzymatic activity
T30 construct: purchased Reaction Biology Corporation
Procedure, shortened: as §1

SLK/STK2 = biological target: T31, SLK/STK2 (Homo sapiens, UniProt Q9H2G2); settings: 500 nM; relative to DMSO; read-out: Residual enzymatic activity
T31 construct: purchased Reaction Biology Corporation
Procedure, shortened: as §1

STK16 = biological target: T32, STK16 (Homo sapiens, UniProt O75716); settings: 500 nM; relative to DMSO; read-out: Residual enzymatic activity
T32 construct: purchased Reaction Biology Corporation
Procedure, shortened: as §1

STK22D/TSSK1 = biological target: T33, STK22D/TSSK1 (Homo sapiens, UniProt Q9BXA7); settings: for remaining activity at 0.5 µM: 500 nM, relative to DMSO, read-out: Residual enzymatic activity
T33 construct: purchased Reaction Biology Corporation (Malvern, PA, USA)
T33 sequence (Q9BXA7 1-367): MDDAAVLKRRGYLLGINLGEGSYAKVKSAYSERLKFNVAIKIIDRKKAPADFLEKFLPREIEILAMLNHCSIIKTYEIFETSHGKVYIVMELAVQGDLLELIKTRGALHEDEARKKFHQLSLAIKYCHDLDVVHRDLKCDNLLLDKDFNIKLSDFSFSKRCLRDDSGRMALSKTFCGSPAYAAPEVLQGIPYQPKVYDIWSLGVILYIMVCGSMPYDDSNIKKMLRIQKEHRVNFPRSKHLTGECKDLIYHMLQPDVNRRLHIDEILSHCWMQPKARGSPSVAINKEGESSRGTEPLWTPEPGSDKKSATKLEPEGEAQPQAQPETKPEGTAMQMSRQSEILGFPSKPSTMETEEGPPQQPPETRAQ
Procedure, shortened: as §1

TGFBR2 = biological target: T34, TGFBR2 (Homo sapiens, UniProt P37173); settings: 500 nM; relative to DMSO; read-out: Residual enzymatic activity
T34 construct: purchased Reaction Biology Corporation
Procedure, shortened: as §1

TRKA = biological target: T35, TRKA (Homo sapiens, UniProt P04629); settings: 500 nM; relative to DMSO; read-out: Residual enzymatic activity
T35 construct: purchased Reaction Biology Corporation
Procedure, shortened: as §1

[1] = 10-dose mode, threefold serial dilution from 10 μM

T10 sequence (P41240 whole entry): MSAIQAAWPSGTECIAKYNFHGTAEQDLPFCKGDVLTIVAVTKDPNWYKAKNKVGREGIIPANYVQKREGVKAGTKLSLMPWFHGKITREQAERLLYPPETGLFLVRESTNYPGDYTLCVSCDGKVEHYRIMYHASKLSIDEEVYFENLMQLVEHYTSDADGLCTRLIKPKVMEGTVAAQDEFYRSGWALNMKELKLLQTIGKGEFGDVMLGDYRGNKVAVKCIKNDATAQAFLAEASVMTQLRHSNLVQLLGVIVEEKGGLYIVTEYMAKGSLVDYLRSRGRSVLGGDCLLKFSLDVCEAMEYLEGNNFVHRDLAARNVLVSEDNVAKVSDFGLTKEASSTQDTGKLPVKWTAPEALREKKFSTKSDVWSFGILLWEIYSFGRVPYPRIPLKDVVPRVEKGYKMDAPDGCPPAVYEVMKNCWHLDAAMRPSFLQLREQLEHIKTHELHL
T1 sequence (Q07912 whole entry): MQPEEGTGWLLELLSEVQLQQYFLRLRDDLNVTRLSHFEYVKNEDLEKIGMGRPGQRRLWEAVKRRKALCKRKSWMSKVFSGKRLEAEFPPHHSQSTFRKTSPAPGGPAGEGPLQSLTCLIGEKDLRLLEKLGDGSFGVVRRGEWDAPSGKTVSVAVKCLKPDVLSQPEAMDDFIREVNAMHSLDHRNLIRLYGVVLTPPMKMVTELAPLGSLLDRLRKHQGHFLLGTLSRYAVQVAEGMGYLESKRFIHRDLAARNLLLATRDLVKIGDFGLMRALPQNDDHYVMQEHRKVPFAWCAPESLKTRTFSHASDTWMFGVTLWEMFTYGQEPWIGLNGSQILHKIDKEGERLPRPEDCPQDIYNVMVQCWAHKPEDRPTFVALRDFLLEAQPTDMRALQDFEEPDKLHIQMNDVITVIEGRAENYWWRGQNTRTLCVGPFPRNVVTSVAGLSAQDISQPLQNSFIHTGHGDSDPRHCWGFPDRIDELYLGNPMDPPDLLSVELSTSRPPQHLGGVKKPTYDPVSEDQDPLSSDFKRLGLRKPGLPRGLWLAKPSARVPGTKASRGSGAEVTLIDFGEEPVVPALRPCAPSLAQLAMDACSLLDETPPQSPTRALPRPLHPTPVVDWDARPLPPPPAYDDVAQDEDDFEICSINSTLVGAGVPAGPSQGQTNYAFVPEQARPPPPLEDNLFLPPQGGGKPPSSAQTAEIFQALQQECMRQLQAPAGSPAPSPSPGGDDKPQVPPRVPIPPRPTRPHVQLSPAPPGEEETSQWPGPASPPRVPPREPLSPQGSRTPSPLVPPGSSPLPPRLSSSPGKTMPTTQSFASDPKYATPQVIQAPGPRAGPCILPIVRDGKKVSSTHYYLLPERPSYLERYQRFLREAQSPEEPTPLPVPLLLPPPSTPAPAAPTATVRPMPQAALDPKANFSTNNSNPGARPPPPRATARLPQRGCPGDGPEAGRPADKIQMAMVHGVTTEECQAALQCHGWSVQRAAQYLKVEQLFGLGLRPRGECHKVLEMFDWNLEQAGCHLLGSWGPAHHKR
T13 sequence (P54764 20-986): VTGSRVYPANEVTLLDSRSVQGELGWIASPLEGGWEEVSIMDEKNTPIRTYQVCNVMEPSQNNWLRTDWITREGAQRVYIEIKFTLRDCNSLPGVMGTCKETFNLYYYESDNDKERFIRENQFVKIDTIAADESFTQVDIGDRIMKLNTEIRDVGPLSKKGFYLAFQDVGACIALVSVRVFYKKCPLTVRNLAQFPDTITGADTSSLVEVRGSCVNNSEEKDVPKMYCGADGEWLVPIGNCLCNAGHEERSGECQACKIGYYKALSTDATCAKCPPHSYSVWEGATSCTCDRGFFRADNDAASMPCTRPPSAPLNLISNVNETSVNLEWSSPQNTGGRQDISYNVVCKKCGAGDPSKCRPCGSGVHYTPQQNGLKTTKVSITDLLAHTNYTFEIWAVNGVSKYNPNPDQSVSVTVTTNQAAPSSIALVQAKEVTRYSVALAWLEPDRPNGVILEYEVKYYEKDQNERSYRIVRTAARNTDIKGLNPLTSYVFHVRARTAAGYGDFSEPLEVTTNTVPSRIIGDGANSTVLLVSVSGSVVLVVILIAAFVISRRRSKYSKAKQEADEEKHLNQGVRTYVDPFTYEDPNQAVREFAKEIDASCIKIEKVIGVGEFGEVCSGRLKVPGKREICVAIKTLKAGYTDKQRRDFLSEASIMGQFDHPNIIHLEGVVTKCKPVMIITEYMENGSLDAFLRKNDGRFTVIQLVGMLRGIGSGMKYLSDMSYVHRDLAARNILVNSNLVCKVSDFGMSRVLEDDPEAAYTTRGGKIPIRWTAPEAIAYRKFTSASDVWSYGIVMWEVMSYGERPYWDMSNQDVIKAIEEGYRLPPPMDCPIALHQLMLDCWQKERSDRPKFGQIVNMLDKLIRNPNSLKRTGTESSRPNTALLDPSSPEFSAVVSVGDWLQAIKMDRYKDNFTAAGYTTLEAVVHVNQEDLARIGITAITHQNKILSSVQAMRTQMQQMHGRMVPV
T11 sequence (O15075 whole entry): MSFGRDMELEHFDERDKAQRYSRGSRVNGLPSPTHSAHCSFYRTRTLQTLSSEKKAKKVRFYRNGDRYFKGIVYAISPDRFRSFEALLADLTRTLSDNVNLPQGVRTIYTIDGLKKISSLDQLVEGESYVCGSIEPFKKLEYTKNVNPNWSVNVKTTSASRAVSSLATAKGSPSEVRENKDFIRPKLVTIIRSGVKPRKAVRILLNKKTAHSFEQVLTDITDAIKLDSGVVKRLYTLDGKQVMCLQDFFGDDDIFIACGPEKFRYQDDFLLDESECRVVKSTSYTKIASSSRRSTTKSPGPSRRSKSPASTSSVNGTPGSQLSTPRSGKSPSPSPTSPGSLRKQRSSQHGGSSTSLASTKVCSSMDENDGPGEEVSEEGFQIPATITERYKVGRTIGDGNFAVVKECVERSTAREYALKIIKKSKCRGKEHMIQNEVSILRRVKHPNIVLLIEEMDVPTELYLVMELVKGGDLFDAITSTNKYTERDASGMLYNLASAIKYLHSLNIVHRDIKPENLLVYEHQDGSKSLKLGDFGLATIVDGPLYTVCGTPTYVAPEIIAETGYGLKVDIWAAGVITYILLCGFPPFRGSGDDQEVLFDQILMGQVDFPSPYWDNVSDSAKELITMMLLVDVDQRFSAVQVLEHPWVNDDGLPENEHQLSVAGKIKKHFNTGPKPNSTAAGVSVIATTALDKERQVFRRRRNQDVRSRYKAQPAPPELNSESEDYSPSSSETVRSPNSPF
T24 sequence (P11309 whole entry): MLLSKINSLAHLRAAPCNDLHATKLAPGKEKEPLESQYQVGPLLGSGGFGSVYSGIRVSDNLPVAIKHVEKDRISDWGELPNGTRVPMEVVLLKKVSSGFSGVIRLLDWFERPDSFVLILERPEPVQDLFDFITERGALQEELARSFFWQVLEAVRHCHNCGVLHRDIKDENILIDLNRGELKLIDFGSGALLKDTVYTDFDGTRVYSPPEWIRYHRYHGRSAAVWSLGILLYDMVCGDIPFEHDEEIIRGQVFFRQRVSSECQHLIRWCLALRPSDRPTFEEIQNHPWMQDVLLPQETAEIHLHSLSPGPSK
T31 sequence (Q9H2G2 whole entry): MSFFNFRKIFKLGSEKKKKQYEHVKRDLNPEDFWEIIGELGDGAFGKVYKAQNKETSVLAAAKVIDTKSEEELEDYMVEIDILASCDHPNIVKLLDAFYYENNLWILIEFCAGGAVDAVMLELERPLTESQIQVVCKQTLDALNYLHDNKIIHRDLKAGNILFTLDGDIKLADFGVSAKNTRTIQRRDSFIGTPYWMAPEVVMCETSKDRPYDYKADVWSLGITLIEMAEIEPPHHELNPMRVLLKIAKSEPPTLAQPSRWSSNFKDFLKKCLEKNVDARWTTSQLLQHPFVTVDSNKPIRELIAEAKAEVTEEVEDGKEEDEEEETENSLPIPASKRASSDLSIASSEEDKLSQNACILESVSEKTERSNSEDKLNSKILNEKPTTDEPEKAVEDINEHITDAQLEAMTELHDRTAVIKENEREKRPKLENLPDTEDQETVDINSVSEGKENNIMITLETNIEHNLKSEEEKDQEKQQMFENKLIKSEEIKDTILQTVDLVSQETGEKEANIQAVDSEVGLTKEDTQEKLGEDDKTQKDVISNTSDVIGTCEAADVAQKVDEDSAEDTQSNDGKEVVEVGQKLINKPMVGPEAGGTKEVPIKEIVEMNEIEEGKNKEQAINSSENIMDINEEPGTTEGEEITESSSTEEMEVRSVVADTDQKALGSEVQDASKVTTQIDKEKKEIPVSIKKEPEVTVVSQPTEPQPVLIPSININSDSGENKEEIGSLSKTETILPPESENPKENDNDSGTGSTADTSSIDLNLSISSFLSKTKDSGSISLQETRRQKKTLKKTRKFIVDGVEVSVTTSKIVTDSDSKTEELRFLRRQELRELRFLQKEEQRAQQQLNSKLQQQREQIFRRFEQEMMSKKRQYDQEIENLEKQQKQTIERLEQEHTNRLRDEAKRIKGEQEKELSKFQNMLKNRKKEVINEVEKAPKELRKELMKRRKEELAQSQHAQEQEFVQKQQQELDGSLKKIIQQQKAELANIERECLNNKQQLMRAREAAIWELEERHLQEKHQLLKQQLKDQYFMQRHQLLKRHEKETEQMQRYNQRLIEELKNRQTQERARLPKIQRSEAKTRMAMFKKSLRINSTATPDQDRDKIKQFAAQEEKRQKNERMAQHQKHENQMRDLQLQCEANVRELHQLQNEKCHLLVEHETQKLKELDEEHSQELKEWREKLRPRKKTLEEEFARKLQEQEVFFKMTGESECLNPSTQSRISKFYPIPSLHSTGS
T17 sequence (P52564 whole entry): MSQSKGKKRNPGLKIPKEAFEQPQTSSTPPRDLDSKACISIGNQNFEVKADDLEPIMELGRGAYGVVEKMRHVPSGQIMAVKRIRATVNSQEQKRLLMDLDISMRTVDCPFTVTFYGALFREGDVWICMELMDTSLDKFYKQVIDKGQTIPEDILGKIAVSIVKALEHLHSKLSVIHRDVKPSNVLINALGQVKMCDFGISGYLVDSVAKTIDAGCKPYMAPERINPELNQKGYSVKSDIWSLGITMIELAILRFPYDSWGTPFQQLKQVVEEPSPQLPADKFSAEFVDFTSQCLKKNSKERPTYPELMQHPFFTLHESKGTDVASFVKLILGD

Structure (SMILES) | remaining activity at 0.5 µM (ACK1) | remaining activity at 0.5 µM (ALK4/ACVR1B) | remaining activity at 0.5 µM (BRSK1) | remaining activity at 0.5 µM (CAMKK1) | remaining activity at 0.5 µM (CDK1/cyclin A) | remaining activity at 0.5 µM (CDK2/cyclin A) | remaining activity at 0.5 µM (CDK4/cyclin D3) | remaining activity at 0.5 µM (CHK1) | remaining activity at 0.5 µM (CK2a2) | remaining activity at 0.5 µM (CSK) | remaining activity at 0.5 µM (DCAMKL1) | remaining activity at 0.5 µM (DYRK2) | remaining activity at 0.5 µM (EPHA4) | remaining activity at 0.5 µM (GRK5) | remaining activity at 0.5 µM (LATS1) | remaining activity at 0.5 µM (MKK6) | remaining activity at 0.5 µM (MNK1) | remaining activity at 0.5 µM (MST4) | remaining activity at 0.5 µM (NEK6) | remaining activity at 0.5 µM (PASK) | further results
COc1cc(Nc2ncnc(Nc3cc4c(cn3)NC(=O)C(C)(C)O4)n2)cc(OC)c1OC [MT-SYK-03] | 5.4% | 125% | 92.6% | 102% | 110% | 83.1% | 100% | 91.4% | 66% | 34.8% | 97.6% | 104% | > 54% | 103% | 99.4% | 116% | 91.2% | 112% | 103% | 102% | IC50 (ACK1; [1]): 86 nM and 85.7 nM; IC50 (CSK; [1]): 238 nM; Residual enzymatic activity (EPHA4): 58.1%; Residual enzymatic activity (EPHB3): 94.2%; remaining activity at 0.5 µM (MRCKb/CDC42BPB; 500 nM, relative to DMSO): 103%; remaining activity at 0.5 µM (PHKg1): 97.1%; remaining activity at 0.5 µM (PIM1): 101%; remaining activity at 0.5 µM (PKCb1): 104%; remaining activity at 0.5 µM (PKCtheta): 102%; remaining activity at 0.5 µM (PKG1a): 94.8%; remaining activity at 0.5 µM (PLK2): 81.6%; remaining activity at 0.5 µM (PRKX): 115%; remaining activity at 0.5 µM (RIPK3): 108%; remaining activity at 0.5 µM (SLK/STK2): 81%; remaining activity at 0.5 µM (STK16): 50.6%; remaining activity at 0.5 µM (STK22D/TSSK1): 49.9%; IC50 (STK22D/TSSK1; [1]): 198 nM; remaining activity at 0.5 µM (TGFBR2): 116%; remaining activity at 0.5 µM (TRKA): 82.5%
COc1cc(Nc2ncc(F)c(Nc3ccc4c(n3)NC(=O)C(C)(C)O4)n2)cc(OC)c1OC [R406, reference compound] | 0.6% | 133% | 61.6% | 91.9% | 74.2% | 47.6% | 99.6% | 78.6% | 21.4% | 20.6% | 84.2% | 64.1% | 42.8% | 96.4% | 79.6% | 112% | 61.5% | 94.8% | 70.5% | 106% | remaining activity at 0.5 µM (EPHB3; read-out: Residual enzymatic activity): 84.4%; remaining activity at 0.5 µM (MRCKb/CDC42BPB): 105%; remaining activity at 0.5 µM (PHKg1): 61.5%; remaining activity at 0.5 µM (PIM1): 99.2%; remaining activity at 0.5 µM (PKCb1): 63%; remaining activity at 0.5 µM (PKCtheta): 99.5%; remaining activity at 0.5 µM (PKG1a): 85.4%; remaining activity at 0.5 µM (PLK2): 19.4%; remaining activity at 0.5 µM (PRKX): 104%; remaining activity at 0.5 µM (RIPK3): 107%; remaining activity at 0.5 µM (SLK/STK2): 31.4%; remaining activity at 0.5 µM (STK16): 6.3%; remaining activity at 0.5 µM (STK22D/TSSK1): 9.6%; remaining activity at 0.5 µM (TGFBR2): 97.1%; remaining activity at 0.5 µM (TRKA): 25.7%

— paper PMC8632988, “Inhibition of SYK and cSrc kinases can protect bone and cartilage in preclinical models of osteoarthritis and rheumatoid arthritis” (Scientific Reports, 2021)
